In brackets after ≈: the same amount, converted by molar mass.
How the values were obtained:
Mycobacterium smegmatis = experiment: Biofilm disruption, crystal violet assay; type: cell-based; design: MIC: unit not given beside the values
Experimental: In these experiments, the antimicrobial potential of the system was evaluated in Mycobacterium smegmatis used as a model of M. tuberculosis as they have homologous genes. The biofilm formation potential of Mycobacterium smegmatis was evaluated by scanning electron microscopy and the formation thereof was quantified with crystal violet, using 96-well plates made of polyvinyl chloride.
A crystal violet-based spectrophotometric study was used. To that end, M. smegmatis was inoculated in liquid culture (5 mL of 7H9 medium supplemented with OACC) and left to grow to exponential phase. The culture was diluted 1:100 and 100 µL were pipetted into each well. The controls were the rifabutin-free formulations and the blank was the bacterial culture-free medium. After incubating for two days at 37°C and once the biofilm was formed, the plates were washed with distilled water to remove planktonic cells and 200 µL of each formulation were added in serial dilutions (in the same manner as above). After 24 h, the plate was washed with water again to remove possible planktonic cells, and the biofilm was stained with 125 µL of 0.1% crystal violet solution and incubated for 10 min at room temperature. It was the washed with water and stirred vigorously. Finally, remaining crystal violet was solubilized by adding 200 µL of 95% ethanol and incubating for 15 min at room temperature. The solution was then transferred to a 96-well, flat-bottom plate, and biofilm formation was measured at 570 nm.

Mycobacterium species = settings: cited from earlier work
[1] = cited from earlier work
RAW 264.7 cells = experiment: MTT cytotoxicity assay; type: cell-based; settings: 12.5 µg/mL rifabutin
Experimental: To ensure that the microparticles of the invention can be safely used for pharmaceutical uses, MTT was used to investigate their cytotoxicity in Raw264.7 cells. In that sense, the in vitro toxicity of the microparticles of the invention, prepared according to Example 4, was evaluated by means of an MTT colorimetric assay, quantifying the water-insoluble formazan in RAW 264.7 cells after 24 hours of incubation of different particle concentrations. Cells were seeded (10,000 cells/well) 24 h before the experiment in a 96-well plate in a DMEM culture medium (10% FBS and 1% penicillin/streptomycin) at […] 37°C and 5% CO2. The medium was then replaced with the formulations and the cells were incubated for 24 hours. Fresh medium was used as negative control and Triton x100 (1% v/v) was used as positive control. After 24 h, 0.5 mg/mL of MTT dissolved in PBS were added, and the cells were incubated for 4 h at 37°C in darkness. Formazan crystals were dissolved by means of adding HCl 0.04 N in isopropanol and absorbance was measured at 570 nm using a microplate reader (Synergy H1 Hybrid Multi-Mode, BioTek, Winooski, VT, USA). Cell viability (%) was calculated following the equation: Cell viability (%) = (Sample absorbance−Negative control absorbance)/(Positive control absorbance−Negative control absorbance) × 100 [formula]

M. phlei, M. smegmatis = experiment: Resazurin-based microdilution growth inhibition assay; type: cell-based; settings: for IC50 / IC90: strain and unit inferred
Experimental: The antibacterial activity of the microparticles of the invention with rifabutin (and of the nanosystems) was evaluated in the strain that grows rapidly, M. phlei, and in the strain that grows slowly, M. smegmatis, using a resazurin-based microdilution assay according to the EUCAST guidelines and CSLI guidelines with slight modifications. This is a quick and objective method, and the minimum inhibitory concentration (MIC) is easily detectable because resazurin (blue) turns into resorufin (pink fluorescence) in the presence of viable bacteria. The microparticles of the invention with rifabutin were diluted in a cation-adjusted 2X Mueller-Hinton broth (CaMHB) until reaching a final antibiotic concentration of 32 mg/L. Since the range of susceptibility of Mycobacterium species to rifabutin is ≤0.25-16 mg/L, the highest tested antibiotic concentration was 16 mg/L. A bacterial suspension (in CaMHB) was diluted to a final concentration of 5 × 10^5 CFU/mL. For efficacy determination, the following controls were used: (i) growth control (without treatment), (ii) sterility control (CaMHB), (iii) positive control for inhibitory effect (free rifabutin in solution), and as well as (iv) the microparticles of the invention (without rifabutin), so as to take into account the possible effects of the microparticles of the invention on bacterial growth. […] Fluorescence intensity was measured at 560 and 590 nm of excitation and monitored using the FLUOR®star Omega multimode lector (Biotron Healthcare, India) and the MARS data analysis software, after an incubation period of 30 min at 37°C. The lowest concentration at which color change was observed was considered the minimum inhibitory concentration (MIC) value. Furthermore, IC50 was calculated using an online tool: "Quest Graph™ IC50 Calculator". AAT Bioquest, Inc.

[2] = Mycolicibacterium smegmatis, Biofilm culture, unit inferred

CO[C@H]1/C=C/O[C@@]2(C)Oc3c(C)c(O)c4c(c3C2=O)C2=NC3(CCN(CC(C)C)CC3)NC2=C(NC(=O)/C(C)=C\C=C\[C@H](C)[C@H](O)[C@@H](C)[C@@H](O)[C@@H](C)[C@H](OC(C)=O)[C@@H]1C)C4=O [Rifabutin]
difference between culture with rifabutin in suspension and without treatment (Mycobacterium smegmatis; 2 mg/mL): hardly any differences
MIC (Mycobacterium smegmatis; Biofilm culture, unit not given): 4
IC50 (Mycobacterium smegmatis; [2]): 4.67 µg/mL (≈ 5.51 µM)
IC90 (Mycobacterium smegmatis; [2]): 42 µg/mL (≈ 49.6 µM)
range of susceptibility of Mycobacterium species to rifabutin (Mycobacterium species): 0.25 to 16 mg/L
oral bioavailability (reaches systemic circulation) [1]: less than 20%
viability (RAW 264.7 cells): > 50%
MIC (M. phlei, M. smegmatis; 2-day preinoculum, strain and unit not given): 4
MIC (M. phlei, M. smegmatis; 4-day preinoculum, strain and unit not given): 4
IC50 (M. phlei, M. smegmatis; 48 h, 2-day preinoculum): 2.24 µg/mL (≈ 2.64 µM)
IC90 (M. phlei, M. smegmatis; 48 h, 2-day preinoculum): 20.2 µg/mL (≈ 23.8 µM)
IC50 (M. phlei, M. smegmatis; 96 h, 4-day preinoculum): 2.04 µg/mL (≈ 2.41 µM)
IC90 (M. phlei, M. smegmatis; 96 h, 4-day preinoculum): 18.4 µg/mL (≈ 21.7 µM)
IC50 (M. phlei, M. smegmatis; Preinoculum culture t=0): 0.34 µg/mL (≈ 0.401 µM)
IC90 (M. phlei, M. smegmatis; Preinoculum culture t=0): 3.06 µg/mL (≈ 3.61 µM)
MIC (M. phlei, M. smegmatis; Preinoculum culture t=0, strain and unit not printed in table (method: mg/L)): 1

From patent EP4740940A1, “POLLEN PARTICLES AS CARRIERS FOR PULMONARY DELIVERY” (Universidade de Santiago de Compostela, priority 2023, dated 2025)
